Test results published in PMC7714071, “Interaction of amyloid beta with humanin and acetylcholinesterase is modulated by ATP” (FEBS Open Bio, 2020).

Tests used:
[1] = system: H1299 cells; assay: MTT cell viability, H1299; type: cell-based, human; settings: 48 h, Fig. 7B; for effect of ATP on viability in HN-ID media: HN-immunodepleted media, versus no ATP; for effect on cell viability: control media, three experiments in triplicate
Protocol: Human NSCLC cell lines, A549 (ATCC CCL‐185) and H1299 (ATCC CRL‐5803), were purchased from the American Type Culture Collection (ATCC, Manassas, VA, USA). Cells were seeded as we reported earlier in 5 mL HyClone Dulbecco's modified Eagle's medium/nutrient mixture F‐12 (DMEM/F12) (GE Healthcare Life Sciences, Pittsburgh, PA, USA), supplemented with 10% Fetalgro bovine growth serum (FBS; RMBIO, Missoula, MT, USA), 50 U·mL^−1 penicillin, and […] streptomycin (Invitrogen, Life Technologies, Carlsbad, CA, USA) in 25‐cm^2 tissue culture flasks, and allowed to grow overnight in an incubator at 37 °C, 95% humidity, and 5% CO2. The cells were counted after trypan blue staining, with a hemocytometer.
The 3‐(4,5‐dimethylthiazol‐2‐yl)‐2,5‐diphenyl‐tetrazolium bromide (MTT) reduction assay (Sigma‐Aldrich), used to measure cell viability, was carried out as we reported earlier. Cells were seeded in 96‐well plates as indicated in 200 μL 10% FBS‐supplemented media per well and maintained overnight at 95% humidity and 5% CO2. After an overnight incubation, the media were replaced with 200 μL serum‐free media, and the cells were further incubated, without or with different treatments, for 24, 48, or 72 h. The final concentration of DMSO in each well never exceeded 0.1%. The cells were then incubated for 4 h with MTT (0.5 mg·mL^−1) in the dark. The media were carefully removed, and DMSO (100 μL) was added to dissolve the formazan crystals. The absorbance was measured at 570 nm in a plate reader. Untreated cells or wells containing only DMSO and media were used as a positive and negative control, respectively. Statistical analysis was conducted using […] PRISM version 8.4.3 for Windows. Significant values were considered at P < 0.05 and more significant values at P < 0.01, compared with the control.
Conditioned media were immunodepleted (ID) according to the methods previously described and our recently published report. Briefly, specific antibodies were bound to ELISA wells overnight (1 : 1000 dilution). The wells were then blocked and washed, then 300 μL of the conditioned medium (0.5 μg·μL^−1) treated as indicated, 72 h postserum starvation, was incubated with the antibodies bound to ELISA wells for 24 h. The ID media were then carefully removed and analyzed for the presence of the target protein or peptide by ELISA. The same amount of protein (3 µL of 600 µg·mL^−1 total protein) of each sample was analyzed in the experiments. Significant depletion (95–100%) was observed upon using each of the antibodies employed in this study.
Since addition of ATP appears to increase binding of HN to Aβ, and conversely, decreases the interaction of Aβ with AChE (Figs 3, 4, 5, 6), we tested the effect of added ATP on A549 and H1299 cell viability (Fig. 7). Exogenously added ATP at either 100 µM or 1 mM had no effect on viability of either A549 (Fig. 7A) or H1299 cells (Fig. 7B). […] To determine the effect of ID of AChE or HN in the absence or presence of added ATP on cell viability, ID media were prepared by first seeding 0.2 × 10^5 cells per well in 96‐well plates in 10% FBS‐supplemented media. The next day, the cells were incubated in serum‐free medium for 72 h, then ID of AChE or HN as described in Materials and methods. For cell viability assays, cells were seeded in 96‐well plates at 0.2 × 10^5 cells per well in 200 µL 10% FBS‐supplemented media followed by incubation in serum‐free medium for 12 h, then treated with the ID media for 48 h. […]

[2] = system: Aβ42; settings: HN and AChE compared; cited from earlier work
From the text: Humanin has been previously reported to bind amino acid residues 17–28 of Aβ (Fig. 1). AChE is also known to bind Aβ (1–16) and the Aβ (12–28) region (Fig. 1). Since the binding sites of AChE and HN on Aβ are overlapping, we previously investigated whether HN and AChE can simultaneously bind Aβ [79].

[3] = system: Aβ40; settings: cited from earlier work
From the text: Almost all types of cells produce amyloid beta (Aβ), a peptide well recognized for its role in the development and progression of different stages of Alzheimer's disease (AD). The Aβ peptide is ~ 4 kDa and derived from the sequential processing of the higher molecular weight amyloid precursor protein by two membrane‐bound endoproteases, β‐ and γ‐secretase. Different C‐terminal Aβ heterogeneity results from processing by γ‐secretase, where Aβ40 represents the most abundant isoform (~ 90%) as compared to Aβ42 (~ 10%). Self‐assembled Aβ40/42 peptides into amyloid fib ... || Humanin (HN) is a secreted 21‐ to 24‐amino acid mitochondrial‐derived peptide. Certain amino acid residues in HN have been identified to be involved in different functions, including binding to Aβ [55, 56]. […] HN was identified previously as a binding partner of Aβ, likely modulating its aggregation pathways and counteracting its deleterious effects. […] The specific epitopes at the binding interface between HN and Aβ40 were identified, by proteolytic epitope excision and extraction in addition to affinity–mass spectrometric data analysis, to be HN (5–15) and Aβ (17–28). […] Inhibiting the 17–28 region of Aβ reduced aggregation of the neurotoxic amyloid fibrils and related cytotoxicity in SH‐SY5Y, a human neuroblastoma cell ... || (+ 1 further places)

Row | Compound | effect of ATP on viability in AChE-depleted media ([1]; AChE-immunodepleted media) | effect of ATP on viability in HN-ID media ([1]; ATP 100 µM) | effect on cell viability ([1]; ATP 100 µM) | effect of ATP on viability in HN-ID media ([1]; ATP 1 mM) | effect on cell viability ([1]; ATP 1 mM) | affinity for Aβ42 [2] | morphology of Aβ40 [3]
1 | Nc1ncnc2c1ncn2[C@@H]1O[C@H](COP(=O)(O)OP(=O)(O)OP(=O)(O)O)[C@@H](O)[C@H]1O [ATP, Adenosine triphosphate] | did not affect cell viability | No change in cell viability | no effect | No change in cell viability | no effect | – | –
2 | Humanin [HN] | – | – | – | – | – | comparable affinities | from fibrillary to amorphous
